Test results as given in publication PMC5218480 (PLoS ONE, 2017).

System: MV-4-11 cells
Test: Gene expression microarray analysis (Affymetrix PrimeView) and GSEA
Type: cell-based, human
Design: RFU PODN (11730768_x_at) / Fold change /veh PODN (11730768_x_at) / RFU LINC00158 (11744669_a_at) / Fold change /veh LINC00158 (11744669_a_at) / RFU DUSP10 (11751237_a_at) / Fold change /veh DUSP10 (11751237_a_at) / RFU ID3 (11757404_x_at) / Fold change /veh ID3 (11757404_x_at) / RFU PLEKHG5 (11737974_s_at) / Fold change /veh PLEKHG5 (11737974_s_at) / RFU LRRC4B (11730491_at) / Fold change /veh LRRC4B (11730491_at) / RFU GIMAP4 (11747438_a_at) / Fold change /veh GIMAP4 (11747438_a_at) / RFU KRT8 (11758183_x_at) / Fold change /veh KRT8 (11758183_x_at) / RFU CNN1 (11734310_a_at) / Fold change /veh CNN1 (11734310_a_at) / RFU VPS37D (11726825_at) / Fold change /veh VPS37D (11726825_at) / RFU C10orf10 (11716522_x_at) / Fold change /veh C10orf10 (11716522_x_at) / RFU KIR2DL2 /// KIR2DL4 /// KIR2DL5A /// KIR2DL5B /// KIR2DS1 /// KIR2DS2 /// KIR2DS3 /// KIR2DS4 /// KIR3DL3 /// KIR3DL3 /// KIR3DS1 (11738374_at) / Fold change /veh KIR2DL2 /// KIR2DL4 /// KIR2DL5A /// KIR2DL5B /// KIR2DS1 /// KIR2DS2 /// KIR2DS3 /// KIR2DS4 /// KIR3DL3 /// KIR3DL3 /// KIR3DS1 (11738374_at) / RFU C1QL1 (11718748_at) / Fold change /veh C1QL1 (11718748_at) / RFU TMPRSS4 (11747572_a_at) / Fold change /veh TMPRSS4 (11747572_a_at) / RFU HAMP (11756126_x_at) / Fold change /veh HAMP (11756126_x_at) / RFU RNFT2 (11725882_a_at) / Fold change /veh RNFT2 (11725882_a_at) / RFU NR4A2 (11747474_a_at) / Fold change /veh NR4A2 (11747474_a_at) / RFU ABCC12 (11746883_a_at) / Fold change /veh ABCC12 (11746883_a_at) / RFU TMEM136 (11760407_x_at) / Fold change /veh TMEM136 (11760407_x_at) / RFU CLDN22 /// WWC2 (11732394_at) / Fold change /veh CLDN22 /// WWC2 (11732394_at) / RFU HLA-DPB1 (11760878_x_at) / Fold change /veh HLA-DPB1 (11760878_x_at) / RFU SPINT1 (11716480_a_at) / Fold change /veh SPINT1 (11716480_a_at) / RFU GAP43 (11754022_s_at) / Fold change /veh GAP43 (11754022_s_at) / RFU A4GNT (11735810_at) / Fold change /veh A4GNT (11735810_at) / RFU PRB3 (11715151_x_at) / Fold change /veh PRB3 (11715151_x_at) / RFU TUBB4B (11761932_at) / Fold change /veh TUBB4B (11761932_at) / RFU CAPN14 (11732068_a_at) / Fold change /veh CAPN14 (11732068_a_at) / RFU TMCC2 (11721928_a_at) / Fold change /veh TMCC2 (11721928_a_at) / RFU IRGQ (11745062_a_at) / Fold change /veh IRGQ (11745062_a_at) / RFU FAM174B (11720279_a_at) / Fold change /veh FAM174B (11720279_a_at) / RFU TMPRSS4 (11748680_a_at) / Fold change /veh TMPRSS4 (11748680_a_at) / RFU FAM212B (11763350_a_at) / Fold change /veh FAM212B (11763350_a_at) / RFU PLEKHG5 (11743358_a_at) / Fold change /veh PLEKHG5 (11743358_a_at) / RFU ZSCAN30 (11745921_a_at) / Fold change /veh ZSCAN30 (11745921_a_at) / RFU CMKLR1 (11741424_a_at) / Fold change /veh CMKLR1 (11741424_a_at) / RFU LOC101060620 /// MAPK8IP1 (11723275_at) / Fold change /veh LOC101060620 /// MAPK8IP1 (11723275_at) / RFU SPTSSB (11747773_x_at) / Fold change /veh SPTSSB (11747773_x_at) / RFU PRSS12 (11739890_at) / Fold change /veh PRSS12 (11739890_at) / RFU BIN1 (11741810_x_at) / Fold change /veh BIN1 (11741810_x_at) / RFU WNT11 (11732464_a_at) / Fold change /veh WNT11 (11732464_a_at) / RFU C10orf10 (11716521_a_at) / Fold change /veh C10orf10 (11716521_a_at) / RFU C5orf56 (11738089_at) / Fold change /veh C5orf56 (11738089_at) / RFU CYB561 (11721691_x_at) / Fold change /veh CYB561 (11721691_x_at) / RFU ANKRD19P (11752326_a_at) / Fold change /veh ANKRD19P (11752326_a_at) / RFU OR2T12 /// OR2T33 /// OR2T8 (11738714_s_at) / Fold change /veh OR2T12 /// OR2T33 /// OR2T8 (11738714_s_at) / RFU VCAN (11748164_a_at) / Fold change /veh VCAN (11748164_a_at) / RFU JSRP1 (11732532_at) / Fold change /veh JSRP1 (11732532_at) / RFU KRTAP10-11 (11738290_x_at) / Fold change /veh KRTAP10-11 (11738290_x_at) / RFU MYO3A (11730013_a_at) / Fold change /veh MYO3A (11730013_a_at) / RFU EBF3 (11725865_a_at) / Fold change /veh EBF3 (11725865_a_at) / RFU CAMK2N1 (11719241_x_at) / Fold change /veh CAMK2N1 (11719241_x_at) / RFU C5orf56 (11738088_a_at) / Fold change /veh C5orf56 (11738088_a_at) / RFU OLFML3 (11715873_a_at) / Fold change /veh OLFML3 (11715873_a_at) / RFU LOC100653217 /// NTM (11731650_a_at) / Fold change /veh LOC100653217 /// NTM (11731650_a_at) / RFU MAPK11 (11762145_a_at) / Fold change /veh MAPK11 (11762145_a_at) / RFU FIZ1 (11724087_x_at) / Fold change /veh FIZ1 (11724087_x_at) / RFU OASL (11726364_x_at) / Fold change /veh OASL (11726364_x_at) / RFU SOX15 (11748057_x_at) / Fold change /veh SOX15 (11748057_x_at) / RFU CD79A (11719716_a_at) / Fold change /veh CD79A (11719716_a_at) / RFU HIST1H1D (11736915_at) / Fold change /veh HIST1H1D (11736915_at) / RFU CASKIN2 (11723855_a_at) / Fold change /veh CASKIN2 (11723855_a_at) / RFU LOC730098 (11760151_x_at) / Fold change /veh LOC730098 (11760151_x_at) / RFU OR4N2 (11742367_at) / Fold change /veh OR4N2 (11742367_at) / RFU PRRT2 (11749266_a_at) / Fold change /veh PRRT2 (11749266_a_at) / RFU SNX32 (11753110_a_at) / Fold change /veh SNX32 (11753110_a_at) / RFU CDHR5 (11726645_a_at) / Fold change /veh CDHR5 (11726645_a_at) / RFU RCAN1 (11760418_a_at) / Fold change /veh RCAN1 (11760418_a_at) / RFU FAM167A (11723789_a_at) / Fold change /veh FAM167A (11723789_a_at) / RFU FAM26E (11764081_at) / Fold change /veh FAM26E (11764081_at) / RFU ISYNA1 (11749810_s_at) / Fold change /veh ISYNA1 (11749810_s_at) / RFU ACY1 (11761880_at) / Fold change /veh ACY1 (11761880_at) / RFU 11764098_at / Fold change /veh 11764098_at / RFU SAMD14 (11745864_x_at) / Fold change /veh SAMD14 (11745864_x_at) / RFU NPB (11741838_a_at) / Fold change /veh NPB (11741838_a_at) / RFU TMPRSS6 (11731388_a_at) / Fold change /veh TMPRSS6 (11731388_a_at) / RFU KRTAP10-2 (11738614_at) / Fold change /veh KRTAP10-2 (11738614_at) / RFU ARHGAP8 /// PRR5-ARHGAP8 (11727945_x_at) / Fold change /veh ARHGAP8 /// PRR5-ARHGAP8 (11727945_x_at) / RFU KRTAP5-7 /// NADSYN1 (11734609_at) / Fold change /veh KRTAP5-7 /// NADSYN1 (11734609_at) / RFU RASL12 (11751679_a_at) / Fold change /veh RASL12 (11751679_a_at) / RFU CDKN2B (11736163_a_at) / Fold change /veh CDKN2B (11736163_a_at) / RFU PRF1 (11729649_at) / Fold change /veh PRF1 (11729649_at) / RFU, ZNF638 /// ZNF638-IT1 / Fold change vs veh, ZNF638 /// ZNF638-IT1 / RFU, PANK3 / Fold change vs veh, PANK3 / RFU, SH3YL1 / Fold change vs veh, SH3YL1 / RFU, ZEB2 / Fold change vs veh, ZEB2 / RFU, NRIP1 / Fold change vs veh, NRIP1 / RFU, PTTG1IP / Fold change vs veh, PTTG1IP / RFU, CAPN2 / Fold change vs veh, CAPN2 / RFU, MED14 / Fold change vs veh, MED14 / RFU, SNORA58 / Fold change vs veh, SNORA58 / RFU, C1orf63 / Fold change vs veh, C1orf63 / RFU, LRRFIP1 / Fold change vs veh, LRRFIP1 / RFU, NDUFAF7 / Fold change vs veh, NDUFAF7 / RFU, SLC12A2 / Fold change vs veh, SLC12A2 / RFU, IBTK / Fold change vs veh, IBTK / RFU, ESF1 / Fold change vs veh, ESF1 / Fold change vs veh, TMEM50B / RFU, TAOK1 / Fold change vs veh, TAOK1 / RFU, ACBD3 / Fold change vs veh, ACBD3 / RFU, TMA16 / Fold change vs veh, TMA16 / RFU, RWDD3 / Fold change vs veh, RWDD3 / RFU, BCAT1 / Fold change vs veh, BCAT1 / RFU, EDEM3 / Fold change vs veh, EDEM3 / RFU, TMEM33 / Fold change vs veh, TMEM33 / RFU, WDR75 / Fold change vs veh, WDR75 / RFU, AHCTF1 / Fold change vs veh, AHCTF1 / RFU, TFRC / Fold change vs veh, TFRC / RFU, ZDHHC17 / Fold change vs veh, ZDHHC17 / RFU, NOM1 / Fold change vs veh, NOM1 / RFU, ARL8B / Fold change vs veh, ARL8B / RFU, ZBTB11 / Fold change vs veh, ZBTB11 / RFU, TAMM41 / Fold change vs veh, TAMM41 / RFU, KIAA1704 /// LOC100996395 / Fold change vs veh, KIAA1704 /// LOC100996395 / RFU, ING1 / Fold change vs veh, ING1 / RFU, TRMT61B / Fold change vs veh, TRMT61B / RFU, FUBP3 / Fold change vs veh, FUBP3 / RFU, TP53 / Fold change vs veh, TP53 / RFU, TNKS2 / Fold change vs veh, TNKS2 / RFU, ZFP14 / Fold change vs veh, ZFP14 / RFU, ACTR2 / Fold change vs veh, ACTR2 / RFU, PPP3R1 / Fold change vs veh, PPP3R1 / RFU, PIK3R1 / Fold change vs veh, PIK3R1 / RFU, HNRNPA1 / Fold change vs veh, HNRNPA1 / RFU, RNF170 / Fold change vs veh, RNF170 / RFU, ZNF28 / Fold change vs veh, ZNF28 / RFU, RNGTT / Fold change vs veh, RNGTT / RFU, OGT / Fold change vs veh, OGT / RFU, BRD1 / Fold change vs veh, BRD1 / RFU, MARS / Fold change vs veh, MARS / RFU, ZNF655 / Fold change vs veh, ZNF655 / RFU, FAHD1 / Fold change vs veh, FAHD1 / RFU, BDP1 / Fold change vs veh, BDP1 / RFU, LRRCC1 / Fold change vs veh, LRRCC1 / RFU, ARID1A / Fold change vs veh, ARID1A / RFU, ZNF146 / Fold change vs veh, ZNF146 / RFU, ZNF330 / Fold change vs veh, ZNF330 / RFU, GPN3 / Fold change vs veh, GPN3 / RFU, C9orf123 / Fold change vs veh, C9orf123 / RFU, N4BP2L2 / Fold change vs veh, N4BP2L2 / RFU, ARFIP1 / Fold change vs veh, ARFIP1 / RFU, FAM179B / Fold change vs veh, FAM179B / RFU, BCL10 / Fold change vs veh, BCL10 / RFU, UHRF1BP1L / Fold change vs veh, UHRF1BP1L / RFU, BET1 / Fold change vs veh, BET1 / RFU, CNOT2 / Fold change vs veh, CNOT2 / RFU, ZNF268 / Fold change vs veh, ZNF268 / Fold change vs veh, ZNF507 / RFU, DGCR2 / Fold change vs veh, DGCR2 / RFU, WDSUB1 / Fold change vs veh, WDSUB1 / Fold change vs veh, HSP90B1 /// MIR3652 / RFU, ADSS / Fold change vs veh, ADSS / RFU, GK / Fold change vs veh, GK / RFU, ZNF148 / Fold change vs veh, ZNF148 / RFU, TAF9 / Fold change vs veh, TAF9 / RFU, SLC1A5 / Fold change vs veh, SLC1A5 / RFU, SLMO2 / Fold change vs veh, SLMO2 / RFU, ABCC4 / Fold change vs veh, ABCC4 / RFU, LOC101060439 /// RAP1B / Fold change vs veh, LOC101060439 /// RAP1B / RFU, RFX7 / Fold change vs veh, RFX7 / RFU, GTPBP10 / Fold change vs veh, GTPBP10 / RFU, CNEP1R1 / Fold change vs veh, CNEP1R1 / RFU, BIVM-ERCC5 /// ERCC5 / Fold change vs veh, BIVM-ERCC5 /// ERCC5 / RFU, ILF3 / Fold change vs veh, ILF3 / RFU 11762660_at / Fold change /veh 11762660_at / RFU VCAN (11757783_s_at) / Fold change /veh VCAN (11757783_s_at) / RFU DDX43 (11728927_at) / Fold change /veh DDX43 (11728927_at) / RFU KRT8 (11758188_x_at) / Fold change /veh KRT8 (11758188_x_at) / RFU NKD1 (11759106_at) / Fold change /veh NKD1 (11759106_at) / RFU SRD5A1 (11742802_a_at) / Fold change /veh SRD5A1 (11742802_a_at) / RFU TPSAB1 /// TPSB2 (11721975_s_at) / Fold change /veh TPSAB1 /// TPSB2 (11721975_s_at) / RFU GSTM3 (11746129_a_at) / Fold change /veh GSTM3 (11746129_a_at) / RFU IL23R (11737362_x_at) / Fold change /veh IL23R (11737362_x_at) / RFU TMEM51 (11727254_a_at) / Fold change /veh TMEM51 (11727254_a_at) / RFU PIWIL2 (11732686_x_at) / Fold change /veh PIWIL2 (11732686_x_at) / RFU ORM1 (11744905_x_at) / Fold change /veh ORM1 (11744905_x_at) / RFU CCDC152 (11743942_at) / Fold change /veh CCDC152 (11743942_at) / RFU ECM1 (11717891_a_at) / Fold change /veh ECM1 (11717891_a_at) / RFU IL23R (11748794_a_at) / Fold change /veh IL23R (11748794_a_at) / RFU TNFAIP8L3 (11732012_x_at) / Fold change /veh TNFAIP8L3 (11732012_x_at) / RFU MBOAT4 (11741988_at) / Fold change /veh MBOAT4 (11741988_at) / RFU 11764193_at / Fold change /veh 11764193_at / RFU TMEM53 (11763286_at) / Fold change /veh TMEM53 (11763286_at) / RFU MAGEB2 (11727129_at) / Fold change /veh MAGEB2 (11727129_at) / RFU TMEM200A (11744735_a_at) / Fold change /veh TMEM200A (11744735_a_at) / RFU CCDC152 (11751479_a_at) / Fold change /veh CCDC152 (11751479_a_at) / RFU FAM211A (11726209_a_at) / Fold change /veh FAM211A (11726209_a_at) / RFU RGS16 (11746705_a_at) / Fold change /veh RGS16 (11746705_a_at) / RFU VCAN (11755009_s_at) / Fold change /veh VCAN (11755009_s_at) / RFU RHOB (11743442_s_at) / Fold change /veh RHOB (11743442_s_at) / RFU RGS16 (11720943_a_at) / Fold change /veh RGS16 (11720943_a_at) / RFU RGS16 (11720944_at) / Fold change /veh RGS16 (11720944_at) / RFU, VPS4B / Fold change vs veh, VPS4B / RFU, CREB1 / Fold change vs veh, CREB1 / RFU, DNAJC13 / Fold change vs veh, DNAJC13 / RFU, GNAQ / Fold change vs veh, GNAQ / RFU, CDK5R1 / Fold change vs veh, CDK5R1 / RFU, ZRANB3 / Fold change vs veh, ZRANB3 / RFU, CUL4A / Fold change vs veh, CUL4A / RFU, CCNY / Fold change vs veh, CCNY / RFU, UFL1 / Fold change vs veh, UFL1 / RFU, COG3 / Fold change vs veh, COG3 / RFU, DIAPH2 / Fold change vs veh, DIAPH2 / RFU, SKA2 / Fold change vs veh, SKA2 / RFU, AFF3 / Fold change vs veh, AFF3 / RFU, LMF1 / Fold change vs veh, LMF1 / RFU, IPO11 / Fold change vs veh, IPO11 / RFU, DFFB / Fold change vs veh, DFFB / RFU, FOXP1 / Fold change vs veh, FOXP1 / RFU, CARD8 / Fold change vs veh, CARD8 / RFU, STRN3 / Fold change vs veh, STRN3 / RFU, ADK / Fold change vs veh, ADK / RFU, RASSF2 / Fold change vs veh, RASSF2 / RFU, WIPF1 / Fold change vs veh, WIPF1 / RFU, LARP1B / Fold change vs veh, LARP1B / RFU, RASA1 / Fold change vs veh, RASA1 / RFU, RB1 / Fold change vs veh, RB1 / RFU, PPFIA1 / Fold change vs veh, PPFIA1 / RFU, MAT2A / Fold change vs veh, MAT2A / RFU, CCT5 / Fold change vs veh, CCT5 / RFU, WDR92 / Fold change vs veh, WDR92 / RFU, CUX1 / Fold change vs veh, CUX1 / RFU, TTC7A / Fold change vs veh, TTC7A / RFU, TMEM135 / Fold change vs veh, TMEM135 / RFU, DEPTOR / Fold change vs veh, DEPTOR / RFU, CPM / Fold change vs veh, CPM / RFU, DNAJB6 / Fold change vs veh, DNAJB6 / RFU, CACNA2D3 / Fold change vs veh, CACNA2D3 / RFU, DTX4 / Fold change vs veh, DTX4 / RFU, TFCP2 / Fold change vs veh, TFCP2 / RFU, GMCL1 /// GMCL1P1 / Fold change vs veh, GMCL1 /// GMCL1P1 / RFU, AEBP2 / Fold change vs veh, AEBP2 / RFU, SNHG1 /// SNORD22 /// SNORD25 /// SNORD26 /// SNORD27 /// SNORD28 /// SNORD29 /// SNORD31 / Fold change vs veh, SNHG1 /// SNORD22 /// SNORD25 /// SNORD26 /// SNORD27 /// SNORD28 /// SNORD29 /// SNORD31 / Fold change (Aza/veh), C12orf56 (ProbeSet 11735607_a_at) / Fold change (ACY-1035/veh), C12orf56 (ProbeSet 11735607_a_at) / Fold change (Aza/veh), FGFR1OP (ProbeSet 11751329_s_at) / Fold change (ACY-1035/veh), FGFR1OP (ProbeSet 11751329_s_at) / Fold change (Aza/veh), VPS36 (ProbeSet 11739960_a_at) / Fold change (ACY-1035/veh), VPS36 (ProbeSet 11739960_a_at) / RFU SYPL1 (11715823_x_at) / Fold change /veh SYPL1 (11715823_x_at) / RFU IGFBP7 (11715501_s_at) / Fold change /veh IGFBP7 (11715501_s_at) / RFU REEP3 (11722064_at) / Fold change /veh REEP3 (11722064_at) / RFU IGLL1 (11728026_x_at) / Fold change /veh IGLL1 (11728026_x_at): dose or concentration left out as unconfirmed
Settings: gene FGFR1OP; ACY-1035 vs DMSO; LIST F

For `Nc1ccc(-c2cccs2)cc1NC(=O)c1ccc2c(c1)cc(C1CC1)n2CCN1CCOCC1` [ACY-1035], the “Fold change (ACY-1035/veh), FGFR1OP (ProbeSet 11751329_s_at)” value was 0.57.
